Among the data in PubChem BioAssay (NCI) are TGI and GI50 values, retold here.

Values joined by “and” are separate entries in the source; they are usually repeats but may differ in a detail not shown here. Equal entries are not always repeated.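 Assay format: 96-well plates, 48-hour exposure. Here, GI50 denotes the concentration required for 50% inhibition of growth. TGI denotes the concentration required for complete inhibition of growth.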

Some test systems named below: A549 NSCLC; KM12 colon; TK-10 renal; BT-549 breast; SK-MEL-28 melanoma; SK-OV-3 ovarian; MOLT-4 leukemia; SNB-19 CNS; SF-268 CNS; MCF7 breast.
Assay in all cases: inhibition of tumour cell growth, NCI panel, 48 h

For `CSc1nc(SC)c2c(CN=[N+]=[N-])c(Br)n(Cc3ccccc3)c2n1`, the TGI with A549 NSCLC, in the experiment with KM12 colon, in the experiment with TK-10 renal, with BT-549 breast, in the experiment on SK-MEL-28 melanoma and in the experiment on SK-OV-3 ovarian was above 100 µM in each case. For the same compound, the TGI in the experiment on MOLT-4 leukemia, in the experiment with SNB-19 CNS, with SF-268 CNS and in the experiment with MCF7 breast was above 100 µM each time.

Turning to `Clc1ccccc1C(c1ccccc1)(c1ccccc1)n1ccnc1`, the GI50 with A549 NSCLC is 2.43 µM; with KM12 colon, 2.23 µM; with TK-10 renal it was 3.88 µM; with BT-549 breast it was 2.54 µM; in the experiment with SK-MEL-28 melanoma it was 3.86 µM; in the experiment with SK-OV-3 ovarian it was 3.71 µM. Further, the GI50 with MOLT-4 leukemia is 1.96 µM; in the experiment on SNB-19 CNS it was 3.14 µM; in the experiment on SF-268 CNS, 3.92 µM; in the experiment on MCF7 breast, 2.89 µM. In addition, the TGI in the experiment on A549 NSCLC was 13.3 µM and 29.3 µM; with KM12 colon it was 6.25 µM and 36.8 µM; with TK-10 renal, 13.5 µM and 30.9 µM; in the experiment on BT-549 breast, 6.87 µM and 20.6 µM; in the experiment with SK-MEL-28 melanoma, 15.6 µM and 36.1 µM; with SK-OV-3 ovarian it was 13.7 µM and 29.2 µM. In addition, the TGI in the experiment with MOLT-4 leukemia is 6.87 µM and 57.7 µM; in the experiment with SNB-19 CNS, 17.7 µM and 32.3 µM; with SF-268 CNS, 18.8 µM and 35.7 µM; with MCF7 breast, 11.8 µM and 24.7 µM.

In the case of `CCCCCCCCCCCCCC(=S)NCCCC[C@H](NC(=O)OCc1ccccc1)C(=O)Nc1ccccc1`, the GI50 in the experiment with A549 NSCLC was 6.31 µM; in the experiment with KM12 colon, 4.33 µM; in the experiment with TK-10 renal, 4.4 µM; in the experiment with BT-549 breast, 39.6 µM; in the experiment with SK-MEL-28 melanoma, 7.99 µM; in the experiment with SK-OV-3 ovarian, 21.7 µM. In addition, the GI50 was 3.91 µM in the experiment with MOLT-4 leukemia, 4.27 µM with SNB-19 CNS, 5.84 µM in the experiment on SF-268 CNS and 4.4 µM in the experiment on MCF7 breast. Further, the TGI with A549 NSCLC, with KM12 colon, in the experiment on TK-10 renal, with BT-549 breast, with SK-MEL-28 melanoma and with SK-OV-3 ovarian was above 100 µM in each case. In addition, the TGI in the experiment with MOLT-4 leukemia, in the experiment on SNB-19 CNS, with SF-268 CNS and in the experiment with MCF7 breast was above 100 µM in each case.

As to `COc1ccc(C(=O)Nc2ncc(Cc3ccc(Cl)cc3)s2)cc1`, the GI50 in the experiment on A549 NSCLC is 0.0733 µM; with KM12 colon, 0.0373 µM; with TK-10 renal, 3.94 µM; in the experiment with BT-549 breast it was 1 µM; with SK-MEL-28 melanoma, 2.12 µM; with SK-OV-3 ovarian, 0.15 µM. Moreover, the GI50 was 0.064 µM in the experiment with MOLT-4 leukemia, 0.0897 µM in the experiment on SNB-19 CNS, 0.3 µM in the experiment with SF-268 CNS and 0.0385 µM in the experiment with MCF7 breast. The TGI in the experiment with A549 NSCLC is above 100 µM; in the experiment with KM12 colon, above 37.1 µM; in the experiment on TK-10 renal, above 100 µM; with BT-549 breast, above 100 µM; in the experiment on SK-MEL-28 melanoma it was above 100 µM; in the experiment with SK-OV-3 ovarian, above 100 µM. For the same compound, the TGI in the experiment with MOLT-4 leukemia, in the experiment on SNB-19 CNS, in the experiment on SF-268 CNS and in the experiment with MCF7 breast was above 100 µM in each case.

Regarding `CC(C)(C)c1cc(O)c(O)c(C(C)(C)C)c1`, the GI50 in the experiment on A549 NSCLC was 3.49 µM; in the experiment with KM12 colon it was 5.57 µM; in the experiment with TK-10 renal it was 3.08 µM; with BT-549 breast, 8.71 µM; in the experiment with SK-MEL-28 melanoma, 3 µM; in the experiment on SK-OV-3 ovarian it was 10.3 µM. In addition, the GI50 in the experiment with MOLT-4 leukemia is 3.03 µM; in the experiment on SNB-19 CNS it was 7.3 µM; in the experiment with SF-268 CNS, 4.77 µM; in the experiment on MCF7 breast, 3.45 µM. Further, the TGI with A549 NSCLC came out at 12.2 µM; in the experiment with KM12 colon, 16.9 µM; in the experiment on TK-10 renal, 7.4 µM; in the experiment with BT-549 breast it was 21 µM; in the experiment with SK-MEL-28 melanoma it was 10.7 µM; in the experiment on SK-OV-3 ovarian, 22.6 µM. Also, the TGI in the experiment on MOLT-4 leukemia was determined as 8.67 µM; in the experiment with SNB-19 CNS, 20.3 µM; in the experiment on SF-268 CNS it was 16.1 µM; with MCF7 breast it was 12.8 µM.

Take `O=c1cc(-c2cccc(F)c2)[nH]c2cc3c(cc12)OCO3`: the GI50 is 0.498 µM in the experiment with A549 NSCLC; 0.332 µM in the experiment with KM12 colon; 4.71 µM with TK-10 renal; 0.359 µM in the experiment with SK-MEL-28 melanoma; 0.265 µM in the experiment with SK-OV-3 ovarian; 0.799 µM in the experiment on MOLT-4 leukemia. Moreover, the GI50 was 0.324 µM in the experiment with SNB-19 CNS and 0.658 µM with SF-268 CNS. For the same compound, the TGI was 21.9 µM and 40.9 µM in the experiment on A549 NSCLC; 75 µM and 44 µM in the experiment on TK-10 renal; above 100 µM in the experiment on BT-549 breast; 75 µM and > 72.4 µM with SK-MEL-28 melanoma; 1.01 µM and 1.03 µM in the experiment with SK-OV-3 ovarian; 75 µM and > 16.8 µM with MOLT-4 leukemia. Also, the TGI with SNB-19 CNS was 75 µM and > 45.3 µM; in the experiment on SF-268 CNS it was 75 µM and > 58.1 µM; in the experiment on MCF7 breast, above 100 µM.

Regarding `CN1CCN(CC#Cc2cccc(C(=O)c3cnn(-c4ccc(F)cc4)c3N)c2)CC1`, the GI50 in the experiment with A549 NSCLC, with KM12 colon, in the experiment with TK-10 renal, in the experiment with BT-549 breast, with SK-MEL-28 melanoma and with SK-OV-3 ovarian was above 25 µM each time. Besides, the GI50 in the experiment on MOLT-4 leukemia, in the experiment on SNB-19 CNS, in the experiment on SF-268 CNS and in the experiment with MCF7 breast was above 25 µM throughout. Besides, the TGI with A549 NSCLC, in the experiment with KM12 colon, with TK-10 renal, with BT-549 breast, in the experiment with SK-MEL-28 melanoma and in the experiment with SK-OV-3 ovarian was above 25 µM in each case. Moreover, the TGI in the experiment with MOLT-4 leukemia, in the experiment on SNB-19 CNS, in the experiment with SF-268 CNS and in the experiment with MCF7 breast was above 25 µM each time.
